According to publication PMC9643649, “Engineering Enzyme Substrate Scope Complementarity for Promiscuous Cascade Synthesis of 1,2‐Amino Alcohols” (Angewandte Chemie (International Ed. in English), 2022):

Target: T1, RgnTDC (Mediterraneibacter gnavus, UniProt A7B1V0)
T1 construct: gene RUMGNA_01526; recombinant, purified; construct details only in the supplement
Assay: decarboxylation turnover assay of purified enzyme
Format: biochemical
Settings: native substrate

SMILES: N[C@@H](Cc1c[nH]c2ccccc12)C(=O)O [Trp]
- decarboxylation turnover assay of purified enzyme: we observed only a slight decrease in activity on Trp and Phe
